Experimental findings from patent US20110201818A1, “POLO-LIKE KINASE INHIBITORS” (TAKEDA PHARMACEUTICAL COMPANY LIMITED, priority 2007, published 2011) are described below.

For the assay, the target named is T1, human PLK1 (Homo sapiens, UniProt P53350).
T1 construct: FLAG (DYKDDDDK) (N); made in house; host or cells: Sf21 insect cells, recombinant baculovirus (pFASTBAC1, Bac-to-Bac)
T1 sequence (P53350 with tags, fused parts or gaps): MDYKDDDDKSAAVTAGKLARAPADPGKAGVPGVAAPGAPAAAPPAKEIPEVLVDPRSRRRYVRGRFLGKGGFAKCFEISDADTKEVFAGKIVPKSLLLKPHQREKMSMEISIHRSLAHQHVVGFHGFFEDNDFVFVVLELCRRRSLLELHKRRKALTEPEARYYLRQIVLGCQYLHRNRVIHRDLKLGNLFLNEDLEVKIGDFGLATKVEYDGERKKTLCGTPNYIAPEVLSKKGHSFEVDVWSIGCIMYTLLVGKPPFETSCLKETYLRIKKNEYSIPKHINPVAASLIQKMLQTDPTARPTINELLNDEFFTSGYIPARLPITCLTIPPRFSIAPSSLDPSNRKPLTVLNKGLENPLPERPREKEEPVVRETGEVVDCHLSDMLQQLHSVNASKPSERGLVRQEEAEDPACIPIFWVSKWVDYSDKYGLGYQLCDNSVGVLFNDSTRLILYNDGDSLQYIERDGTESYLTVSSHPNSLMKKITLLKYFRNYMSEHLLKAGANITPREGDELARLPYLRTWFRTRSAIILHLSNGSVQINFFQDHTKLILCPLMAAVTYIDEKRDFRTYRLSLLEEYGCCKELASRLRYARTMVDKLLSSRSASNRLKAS
As to the kind of experiment: PLK1 in vitro enzymatic activity assay (phosphorylation of alpha casein by recombinant PLK1). The class given is biochemical. Conditions: recombinant FLAG-tagged PLK1, alpha casein substrate, 500 nmol/L ATP, 40 min at room temperature; read-out: pIC50 (PLK1) (converted). The method in brief:
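Recombinant PLK1 from baculovirus-infected Sf21 cells (50 ng) phosphorylated 3 μg alpha casein for 40 min at room temperature in HEPES pH 7.5, Mg acetate, DTT buffer with 500 nmol/L ATP plus [γ-32P]ATP. TCA-precipitated phosphoprotein was filter-captured, washed, and counted by scintillation.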
As to `CCC1(F)CN(C2CCCC2)c2nc(Nc3ccc(C(=O)NC4CN(C)C4)cc3OC)ncc2N(C)C1=O` (stereo not drawn) [Compound 95, 4-(9-Cyclopentyl-7-ethyl-7-fluoro-5-methyl-6-oxo-6,7,8,9-tetrahydro-5H-pyrimido[4,5-b][1,4]diazepin-2-ylamino)-3-methoxy-N-(1-methylazetidin-3-yl)benzamide], the IC50 was at most 2 nM.
Consider `CCC1(F)CN(C2CCCCC2)c2nc(Nc3ccc(C(=O)NC4CCN(C)CC4)cc3OC)ncc2N(C)C1=O` (stereo not drawn) [Compound 96, 4-(9-Cyclohexyl-7-ethyl-7-fluoro-5-methyl-6-oxo-6,7,8,9-tetrahydro-5H-pyrimido[4,5-b][1,4]diazepin-2-ylamino)-3-methoxy-N-(1-methylpiperidin-4-yl)benzamide], for which the IC50 is over 2 nM.
Then `CCC1(F)CN(C2CCCCC2)c2nc(Nc3ccc(C(=O)NC4CN(C)C4)cc3OC)ncc2N(C)C1=O` (stereo not drawn) [Compound 97, 4-(9-Cyclohexyl-7-ethyl-7-fluoro-5-methyl-6-oxo-6,7,8,9-tetrahydro-5H-pyrimido[4,5-b][1,4]diazepin-2-ylamino)-3-methoxy-N-(1-methylazetidin-3-yl)benzamide], with over 2 nM.
The figure for `C=CC1(F)CN(C2CCCC2)c2nc(Nc3ccc(C(=O)NC4CN(C)C4)cc3OC)ncc2N(C)C1=O` (stereo not drawn) [Compound 100, 4-(9-cyclopentyl-7-fluoro-5-methyl-6-oxo-7-vinyl-6,7,8,9-tetrahydro-5H-pyrimido[4,5-b][1,4]diazepin-2-ylamino)-3-methoxy-N-(1-methylazetidin-3-yl)benzamide] is at most 2 nM.
Consider `C=C[C@@]1(F)CN(C2CCCC2)c2nc(Nc3ccc(C(=O)NC4CCN(CC)CC4)cc3OC)ncc2N(C)C1=O` [Compound 105, (R)-4-(9-cyclopentyl-7-fluoro-5-methyl-6-oxo-7-vinyl-6,7,8,9-tetrahydro-5H-pyrimido[4,5-b][1,4]diazepin-2-ylamino)-N-(1-ethylpiperidin-4-yl)-3-methoxybenzamide], for which the IC50 is at most 2 nM.
Take `C=C[C@@]1(F)CN(C2CCCC2)c2nc(Nc3ccc(C(=O)NC4CCN(CCO)CC4)cc3OC)ncc2N(C)C1=O` [Compound 106, (R)-4-(9-cyclopentyl-7-fluoro-5-methyl-6-oxo-7-vinyl-6,7,8,9-tetrahydro-5H-pyrimido[4,5-b][1,4]diazepin-2-ylamino)-N-(1-(2-hydroxyethyl)piperidin-4-yl)-3-methoxybenzamide]: the IC50 is over 2 nM.
As to `C=C[C@@]1(F)CN(C2CCCC2)c2nc(Nc3ccc(C(=O)N[C@@H]4CCCNC4)cc3OC)ncc2N(C)C1=O` [Compound 107, 4-((R)-9-cyclopentyl-7-fluoro-5-methyl-6-oxo-7-vinyl-6,7,8,9-tetrahydro-5H-pyrimido[4,5-b][1,4]diazepin-2-ylamino)-3-methoxy-N—((R)-piperidin-3-yl)benzamide], the IC50 is over 2 nM.
As to `C=C[C@@]1(F)CN(C2CCCC2)c2nc(Nc3ccc(C(=O)NC4CCN(CCOP(=O)(O)O)CC4)cc3OC)ncc2N(C)C1=O` [Compound 111, (R)-2-(4-(4-(9-cyclopentyl-7-fluoro-5-methyl-6-oxo-7-vinyl-6,7,8,9-tetrahydro-5H-pyrimido[4,5-b][1,4]diazepin-2-ylamino)-3-methoxybenzamido)piperidin-1-yl)ethyl dihydrogen phosphate], the IC50 was at most 2 nM.
Consider `C=C[C@@]1(F)CN(C2CCCC2)c2nc(Nc3cc(F)c(C(=O)NC4CCN(C)CC4)cc3OC)ncc2N(C)C1=O` [Compound 113, (R)-4-(9-cyclopentyl-7-fluoro-5-methyl-6-oxo-7-vinyl-6,7,8,9-tetrahydro-5H-pyrimido[4,5-b][1,4]diazepin-2-ylamino)-2-fluoro-5-methoxy-N-(1-methylpiperidin-4-yl)benzamide], for which the IC50 was at most 2 nM.
For `COc1cc(C(=O)NC2CCN(CC(N)=O)CC2)ccc1Nc1ncc2c(n1)N(C1CCCC1)CC(F)(F)C(=O)N2C` [Compound 114], the IC50 was over 2 nM.
Then `COc1cc(C(=O)NC2CCN(CC(=O)N(C)C)CC2)ccc1Nc1ncc2c(n1)N(C1CCCC1)CC(F)(F)C(=O)N2C` [Compound 115, 4-(9-cyclopentyl-7,7-difluoro-5-methyl-6-oxo-6,7,8,9-tetrahydro-5H-pyrimido[4,5-b][1,4]diazepin-2-ylamino)-N-(1-(2-(dimethylamino)-2-oxoethyl)piperidin-4-yl)-3-methoxybenzamide], with over 2 nM.
Consider `COc1cc(C(=O)NC2CCN(CCO)CC2)c(F)cc1Nc1ncc2c(n1)N(C1CCCC1)CC(F)(F)C(=O)N2C` [Compound 117, 4-(9-Cyclopentyl-7,7-difluoro-5-methyl-6-oxo-6,7,8,9-tetrahydro-5H-pyrimido[4,5-b][1,4]diazepin-2-ylamino)-2-fluoro-N-(1-(2-hydroxyethyl)piperidin-4-yl)-5-methoxybenzamide], for which the IC50 was at most 2 nM.
As for `COc1cc(C(=O)NC2CCN(C(=O)CN(C)C)CC2)c(F)cc1Nc1ncc2c(n1)N(C1CCCC1)CC(F)(F)C(=O)N2C` [Compound 118, 4-(9-Cyclopentyl-7,7-difluoro-5-methyl-6-oxo-6,7,8,9-tetrahydro-5H-pyrimido[4,5-b][1,4]diazepin-2-ylamino)-N-(1-(2-(dimethylamino)acetyl)piperidin-4-yl)-2-fluoro-5-methoxybenzamide], the IC50 was over 2 nM.
Turning to `COc1cc(C(=O)N[C@@H]2CCCNC2)c(F)cc1Nc1ncc2c(n1)N(C1CCCC1)CC(F)(F)C(=O)N2C` [Compound 119, (R)-4-(9-cyclopentyl-7,7-difluoro-5-methyl-6-oxo-6,7,8,9-tetrahydro-5H-pyrimido[4,5-b][1,4]diazepin-2-ylamino)-2-fluoro-5-methoxy-N-(piperidin-3-yl)benzamide], the IC50 is over 2 nM.
Take `COc1ccc(F)cc1Nc1ncc2c(n1)N(C1CCCC1)CC(F)(F)C(=O)N2C` [Compound 120, 9-Cyclopentyl-7,7-difluoro-2-(5-fluoro-2-methoxyphenylamino)-5-methyl-8,9-dihydro-5H-pyrimido[4,5-b][1,4]diazepin-6(7H)-one]: the IC50 is over 2 nM.
In the case of `COc1c(Nc2ncc3c(n2)N(C2CCCC2)CC(F)(F)C(=O)N3C)ccc(C(=O)O)c1F` [Compound 123, 4-(9-Cyclopentyl-7,7-difluoro-5-methyl-6-oxo-6,7,8,9-tetrahydro-5H-pyrimido[4,5-b][1,4]diazepin-2-ylamino)-2-fluoro-3-methoxybenzoic acid], the IC50 was over 2 nM.
The figure for `COc1cc(C(=O)NC2CN(C(C)C)C2)ccc1Nc1ncc2c(n1)N(C1CCCCC1)CC(F)(F)C(=O)N2C` [Compound 125, 4-(9-cyclohexyl-7,7-difluoro-5-methyl-6-oxo-6,7,8,9-tetrahydro-5H-pyrimido[4,5-b][1,4]diazepin-2-ylamino)-N-(1-isopropylazetidin-3-yl)-3-methoxybenzamide] is at most 2 nM.
As to `CCN1CC(NC(=O)c2ccc(Nc3ncc4c(n3)N(C3CCCCC3)CC(F)(F)C(=O)N4C)c(OC)c2)C1` [Compound 126, 4-(9-cyclohexyl-7,7-difluoro-5-methyl-6-oxo-6,7,8,9-tetrahydro-5H-pyrimido[4,5-b][1,4]diazepin-2-ylamino)-N-(1-ethylazetidin-3-yl)-3-methoxybenzamide], the IC50 was over 2 nM.
The figure for `CCN1CC(NC(=O)c2ccc(Nc3ncc4c(n3)N(C3CCCC3)CC(F)(F)C(=O)N4C)c(OC)c2)C1` [Compound 128, 4-(9-cyclopentyl-7,7-difluoro-5-methyl-6-oxo-6,7,8,9-tetrahydro-5H-pyrimido[4,5-b][1,4]diazepin-2-ylamino)-N-(1-ethylazetidin-3-yl)-3-methoxybenzamide] is at most 2 nM.
For the compound `COc1cc(C(=O)NC2CN(C(C)C)C2)ccc1Nc1ncc2c(n1)N(C1CCCC1)CC(F)(F)C(=O)N2C` [Compound 129, 4-(9-cyclopentyl-7,7-difluoro-5-methyl-6-oxo-6,7,8,9-tetrahydro-5H-pyrimido[4,5-b][1,4]diazepin-2-ylamino)-N-(1-isopropylazetidin-3-yl)-3-methoxybenzamide], the IC50 was at most 2 nM.
Take `COc1cc(C(=O)NC2CNC2)c(F)cc1Nc1ncc2c(n1)N(C1CCCC1)CC(F)(F)C(=O)N2C` [Compound 130, N-(azetidin-3-yl)-4-(9-cyclopentyl-7,7-difluoro-5-methyl-6-oxo-6,7,8,9-tetrahydro-5H-pyrimido[4,5-b][1,4]diazepin-2-ylamino)-2-fluoro-5-methoxybenzamide]: the IC50 was at most 2 nM.
The figure for `CCN1CC(NC(=O)c2cc(OC)c(Nc3ncc4c(n3)N(C3CCCC3)CC(F)(F)C(=O)N4C)cc2F)C1` [Compound 131, 4-(9-cyclopentyl-7,7-difluoro-5-methyl-6-oxo-6,7,8,9-tetrahydro-5H-pyrimido[4,5-b][1,4]diazepin-2-ylamino)-N-(1-ethylazetidin-3-yl)-2-fluoro-5-methoxybenzamide] is at most 2 nM; for `COc1cc(C(=O)NC2CN(C(C)C)C2)c(F)cc1Nc1ncc2c(n1)N(C1CCCC1)CC(F)(F)C(=O)N2C` [Compound 132, 4-(9-cyclopentyl-7,7-difluoro-5-methyl-6-oxo-6,7,8,9-tetrahydro-5H-pyrimido[4,5-b][1,4]diazepin-2-ylamino)-2-fluoro-N-(1-isopropylazetidin-3-yl)-5-methoxybenzamide] it is at most 2 nM.
Turning to `COc1cc(C(=O)NC2CN(C3CCCC3)C2)c(F)cc1Nc1ncc2c(n1)N(C1CCCC1)CC(F)(F)C(=O)N2C` [Compound 133, 4-(9-cyclopentyl-7,7-difluoro-5-methyl-6-oxo-6,7,8,9-tetrahydro-5H-pyrimido[4,5-b][1,4]diazepin-2-ylamino)-N-(1-cyclopentylazetidin-3-yl)-2-fluoro-5-methoxybenzamide], the IC50 was at most 2 nM.
